Laboratory results from US20130296278A1, “Diazeniumdiolate Derivatives” (Merck Sharp & Dohme Corp., priority 2011, published 2013).

Test: Rate of NO release (UV absorbance decay at 248 nm in pH 7.4 buffer)
Assay type: physicochemical
Conditions: 0.25 mM diazeniumdiolate in 100 mM pH 7.4 phosphate buffer, 22° C., absorbance at 248 nm; t½=ln(2)/k
Description: Compounds of the invention were evaluated for the rate of NO release using the following protocol described below.
The method described by Maragos, C. M, et al. Med. Chem. 1991, 34, 3242-3247, was followed. A 100 mM solution of pH 7.4 buffer was prepared by dissolving 626 mg of NaH2PO4.H2O and 4155 mg of Na2HPO4.7H2O in 200 mL of water. The 0.01 M solution of the individual diazeniumdiolate was prepared by dissolving the sodium diazeniumdiolate in 0.01 M sodium hydroxide solution. All solutions used were kept at room temperature. The cuvette incubator was set at 22° C. 25 μL of the 0.01 M diazeniumdiolate solution was added to a cuvette, followed by dilution with 975 μL of pH 7.4 buffer to obtain a 0.25 (25 uL of 0.01 M diluted to 1000 ul will be 0.25 mM) mM solution. The cuvette was inserted into the UV spectrometer, and its absorbance at λ=248 nm was acquired every 3 seconds.
The general first-order rate equation is: […]
The method of Kezdy, F. J.; Jaz, J.; Bruylants, A. Bull. Soc. Chim. Belg. 1958, 67, 687-706, later elaborated by Schwartz, L. M.; Gelb, R. I. Anal. Chem. 1978, 50, 1592-1594, was used to analyze the data without measuring A∞. Two equations are obtained when the measurement At is made at t and At+Δt is made at t+Δt. Dividing these two equations and rearranging the resultant equation, we arrive at
At=At+Δte^−k!+A∞(1−e^kΔt)
Plotting At against At+Δt would yield a straight line with k=−ln(slope)/Δt, A∞=intercept/(1−slope). As a result, t½=ln(2)/k.

half-life at 0.25 mM [min] | Structure (SMILES)
3.17 | C=CCN(/[N+]([O-])=N/[O-])C(C)(C)C.[Na+] [Example 2, Sodium 1-(N-text-butyl-N-allylamino)diazen-1-ium-1,2-diolate]
1.45 | CCCN(/[N+]([O-])=N/[O-])C(C)(C)C.[Na+] [Example 1, Sodium 1-(N-tert-butyl-N-propylamino)diazen-1-ium-1,2-diolate]
3.42 | CC(C)(C)N(CCO)/[N+]([O-])=N/[O-].[Na+] [Example 3, Sodium 1-[N-tert-butyl-N-(2′-hydroxyethyl)amino]diazen-1-ium-1,2-diolate]
